In patent publication US20070066587A1, “Substituted azetidine compounds, their preparation and use as medicaments” (LABORATORIOS DEL DR. ESTEVE S.A, priority 2004, published 2007):

Tests used:
Format in all cases: in vivo
Male NMRI mice [1] = assay: Mouse tetrad model, catalepsy, agonistic effect; settings: 5 mg/kg i.v., 20 minutes after injection
Description: (§1) Substances with affinity for cannabinoid receptors are known to produce a wide range of pharmacological effects. It is also known that intravenous administration of a substance with affinity for cannabinoid receptors in mice produces analgesia, hypothermia, sedation and catalepsy. Individually, none of these effects can be considered as proof that a tested substance has affinity for cannabinoid-receptors, since all of these effects are common for various classes of centrally active agents. However, substances, which show all of these effects, i.e. substances that are active in this so-called tetrad model are considered to have affinity for the cannabinoid receptors. It has further been shown that cannabinoid receptor antagonists are higly effective in blocking the effects of a cannabinoid agonist in the mouse tetrad model.
(§2) The tetrad model is described, for example, in the publication of A. C. Howlett et al, International Union of Pharmacology XXVII. Classification of Cannabinoid Receptors, Pharmacol Rev 54, 161-202, 2002 and David R. Compton et al., “In-vivo Characterization of a Specific Cannabinoid Receptor Antagonist (SR141716A): Inhibition of Tetrahydrocannbinol-induced Responses and Apparent Agonist Activity”, J. Pharmacol. Exp. Ther. 277 , 2, 586-594, 1996. The corresponding parts of the description are hereby incorporated by reference.
(§3) Male NMRI mice with a weight of 20-30 g (Harlan, Barcelona, Spain) are used in all of the following experiments.
(§4) Before testing in the behavioral procedures given below, mice are acclimatized to the experimental setting. Pre-Treatment control values are determined for analgesia hot plate latency (in seconds), rectal temperature, sedation and catalepsy.
(§5) In order to determine the agonistic activty of the substance to be tested, the mice are injected intravenously with the substance to be tested or the vehicle alone. 15 minutes after injection, latency in hot plate analgesia is measured. Rectal temperature, sedation and catalepsy are measured 20 minutes after injection.
Catalepsy is determined according to the method described in Alpermann H. G. et al. “Pharmacological effets of Hoe 249: A new potential antidepressant”, Drugs Dev. Res. 25, 267-282. 1992. The respective description is hereby incorporated by reference and forms part of the present disclosure.
The cataleptic effect of the substance to be tested is evaluated according to the duration of catalepsy, whereby the animals are placed head downwards with their kinlegs upon the top of the wooden block.
The chosen scoring system is:
The percentage of catalepsy is determined according ot the following formula: % Catalepsy=arithmetic mean/6×100

Male NMRI mice [2] = assay: Mouse tetrad model, hypothermia, agonistic effect; settings: 5 mg/kg i.v., 20 minutes after injection
Description: as §1, §2, §3, §4, §5
Hypothermia is determined according to the method described in David R. Compton et al. “In-vivo Characterization of a Specific Cannabinoid Receptor Antagonist (SR141716A) Inhibition of Tetrahydrocannbinol-induced Responses and Apparent Agonist Activity”, J. Pharmacol Exp Ther. 277, 2, 586-594, 1996. The respective description is hereby incorporated by reference and forms part of the present disclosure.
The base-line rectal temperatures are determined with a thermometer (Yello Springs Instruments Co., Panlabs) and a thermistor probe inserted to 25 mm before the administration of the substance to be tested. Rectal temperature is again measured 20 minutes after the administration of the substances to be tested. The temperature difference is calculated for each animal, whereby differences of ≧−2° C. are considered to represent activity.

Male NMRI mice [3] = assay: Mouse tetrad model, hypothermia, antagonistic effect against Win 55212-2; settings: 5 mg/kg i.v. prior to Win 55212-2 1.25 mg/kg i.v.
Description: as §1
(§6) The tetrad model is described, for example, in the publication of A. C. Howlett et al, International Union of Pharmacology XXVII. […]
as §4
(§7) In order to determine the antagonistic activity the identical procedure is used as for the determination of the agonistic effects, but with the difference that the substance to be evaluated for its antagonistic activity is injectected 5 minutes before the intravenous injection of 1.25 mg/kg Win-55,212 a known cannabinoid-receptor agonist.
Hypothermia is determined according to the method described in David R. Compton et al. “In-vivo Characterization of a Specific Cannabinoid Receptor Antagonist (SR141716A) Inhibition of Tetrahydrocannbinol-induced Responses and Apparent Agonist Activity”, J. Pharmacol Exp Ther. 277, 2, 586-594, 1996. […]
The base-line rectal temperatures are determined with a thermometer (Yello Springs Instruments Co., Panlabs) and a thermistor probe inserted to 25 mm before the administration of the substance to be tested. […]

Male NMRI mice [4] = assay: Mouse tetrad model, sedation, agonistic effect; settings: 5 mg/kg i.v., 20 minutes after injection
Description: as §1, §2, §3, §4, §5
Determination of Sedation and Ataxia
Sedation and ataxia is determined according to the method described in Desmet L. K. C. et al. “Anticonvulsive properties of Cinarizine and Flunarizine in Rats and Mice”, Arzneim.-Forsch. (Frug Res) 25, 9, 1975. The respective description is hereby incorporated by reference and forms part of the present disclosure.
The chosen scoring system is
2: obvious calmness and quiet;
prior to as well as after treatment.
(§8) The percentage of sedation is determined according to the formula: % of sedation=arithmetic mean/3×100

Male NMRI mice [5] = assay: Mouse tetrad model, hot plate analgesia, agonistic effect; settings: 5 mg/kg i.v., 15 minutes after injection
Description: as §1, §6, §4, §5
The hot plate analgesia is determined according to the method described in Woolfe D. et al. “The evaluation of analgesic action of pethidine hydrochloride (Demerol)”, J. Pharmacol. Exp. Ther. 80, 300-307, 1944. […]
The mice are placed on a hot plate (Harvard Analgesimeter) at 55±0.5° C. until they show a painful sensation by licking their paws or jumping and the time for these sensations to occur is recorded. This reading is considered the basal value (B). […]
The degree of analgesia is calculated from the formula: % MPE of Analgesia=(PT-B)/(PC-B)×100 MPE=Maximum possible effect.

Male NMRI mice [6] = assay: Mouse tetrad model, sedation, antagonistic effect against Win 55212-2; settings: 5 mg/kg i.v. prior to Win 55212-2 1.25 mg/kg i.v.
Description: as §1, with “It has further been shown that cannabinoid receptor antagonists are higly effective in blocking the effects of a cannabinoid agonist in the mouse tetrad model.” left out
as §4
as §7, with “agonist. […]” for “agonist.”
as §8

C[C@@H]1[C@@H](NS(=O)(=O)c2cccc3nsnc23)CN1C(c1ccc(Cl)cc1)c1ccc(Cl)cc1 (relative stereo) [Example 15, 2,1,3-Benzothiadiazole-4-sulfonic acid {trans-1-[bis-(4-chloro-phenyl)-methyl]-2-methyl-azetidin-3-yl}-amide]
Agonistic effect C: Catalepsy (Male NMRI mice [1]): 0
Agonistic effect B: Hypothermia (Male NMRI mice [2]): 0
Antagonistic Effect B: Hypothermia (Male NMRI mice [3]): 100
Agonistic effect D: Sedation (Male NMRI mice [4]): 0

C[C@H]1[C@H](NS(=O)(=O)c2ccc(F)cc2)CN1C(c1ccc(Cl)cc1)c1ccc(Cl)cc1 [Example 5, N-{(2S,3R)-1-[Bis-(4-chloro-phenyl)-methyl]-2-methyl-azetidin-3-yl}-4-fluoro-benzenesulfonamide]
Agonistic effect A: Hot-Plate test (Male NMRI mice [5]): 2
Agonistic effect C: Catalepsy (Male NMRI mice [1]): 0
Agonistic effect B: Hypothermia (Male NMRI mice [2]): 0
Antagonistic Effect B: Hypothermia (Male NMRI mice [3]): 100
Agonistic effect D: Sedation (Male NMRI mice [4]): 0

C[C@@H]1[C@@H](OS(=O)(=O)c2ccc(F)cc2)CN1C(c1ccc(Cl)cc1)c1ccc(Cl)cc1 (relative stereo) [Example 1, 4-Fluoro-benzenesulfonic acid 1-[trans-bis-(4-chloro-phenyl)-methyl]-2-methyl-azetidin-3-yl ester]
Agonistic effect A: Hot-Plate test (Male NMRI mice [5]): 5
Agonistic effect C: Catalepsy (Male NMRI mice [1]): 0
Agonistic effect B: Hypothermia (Male NMRI mice [2]): 0
Antagonistic Effect B: Hypothermia (Male NMRI mice [3]): 100
Agonistic effect D: Sedation (Male NMRI mice [4]): 0
Antagonistic Effect D: Sedation (Male NMRI mice [6]): 20

C[C@H]1[C@H](NS(=O)(=O)c2cccs2)CN1C(c1ccc(Cl)cc1)c1ccc(Cl)cc1 [Example 6, Thiophene-2-sulfonic acid {(2S,3R)-1-[bis-(4-chloro-phenyl)-methyl]-2-methyl-azetidin-3-yl}-amide]
Agonistic effect A: Hot-Plate test (Male NMRI mice [5]): 0
Agonistic effect C: Catalepsy (Male NMRI mice [1]): 0
Agonistic effect B: Hypothermia (Male NMRI mice [2]): 0
Agonistic effect D: Sedation (Male NMRI mice [4]): 0

C[C@@H]1[C@@H](NS(=O)(=O)c2ccc(S(C)(=O)=O)cc2)CN1C(c1ccc(Cl)cc1)c1ccc(Cl)cc1 (relative stereo) [Example 14, N-{trans-1-[Bis-(4-chloro-phenyl)-methyl]-2-methyl-azetidin-3-yl}-4-methylsulfonyl-benzenesulfonamide]
Agonistic effect C: Catalepsy (Male NMRI mice [1]): 0
Agonistic effect B: Hypothermia (Male NMRI mice [2]): 0
Agonistic effect D: Sedation (Male NMRI mice [4]): 0
Antagonistic Effect D: Sedation (Male NMRI mice [6]): 9
